Assay results reported in US20240390408A1, “METHOD OF TREATING HEPATITIS C VIRUS IN PATIENTS” (Altesa BioSciences, Inc., priority 2023, published 2024).
Read-outs that look alike come from different tables or passages of the source.

Assay: Tissue concentrations of Formula I and its metabolites in Göttingen pigs after a single oral or intravenous dose (LC-MS/MS)
Format: in vivo
Conditions: for concentration at 12 h / concentration at 2 h / concentration at 3 h / concentration at 24 h: both sexes, Göttingen, pig (minipig)
Protocol: Tissue samples were collected at 3, 12, and 24 hours post-dose (hpd) for the oral dose and 2 and 12 hpd for the intravenous dose, snap-frozen in liquid nitrogen, and stored at −60 to −90° C. until shipment on dry ice for analysis by LC-MS/MS.
Animals were weighed the day prior to dosing to determine the dosing volume.
The compound of Formula I was dissolved in a PEG 400/DI water (60%/40% v/v) vehicle for oral dosing. For IV dosing the compound of Formula I was dissolved in a PEG 400/Cremophor RH 40/Saline (40%/10%/50% v/v) vehicle and passed through a sterile filter. […] Animals were euthanized by euthanasia solution administration under sedation, if necessary (e.g., acepromazine and or/Telazol®), followed by a Testing Facility SOP approved method to ensure death (e.g., exsanguination). Tissues were collected from two animals per sex per timepoint. Tissue samples, including the brain, heart, kidney, liver, lung, spleen, pancreas, bone marrow, duodenum, jejunum, and colon, were collected in duplicate (approximately 50±20 mg each) and placed into two separate reinforced homogenization tubes per organ (one tissue sample per tube). The exact weight (in milligrams) of each sample was recorded. Tissues samples were flash frozen in liquid nitrogen and stored at −60 to −90° C. until shipment on dry ice for analysis by LC-MS/MS.
Mobile phase A consisted of 50 mM ammonium bicarbonate buffer in HPLC grade water pH 9.8 and mobile phase B consisted of pure acetonitrile. […] Mass spectrometry analysis was performed on a QTrap 7500 Mass Spectrometer (Sciex, Framingham, MA, USA) using negative mode electrospray ionization (ESI) in multiple reaction monitoring (MRM) mode. Data analysis was performed using SCIEX OS Software (Sciex, Framingham, MA, USA).
Tissue samples were collected at 3, 12, and 24 hours post-dose for the oral dose and 2 and 12 hour post-dose for the intravenous dose.

[1] = kidney, single intravenous bolus of Formula I 25 mg/kg, 2 hpd, read-out: Tissue concentration, kidney
[2] = kidney, single oral dose of Formula I 125 mg/kg, 3 hpd, read-out: Tissue concentration, kidney
[3] = liver, single intravenous bolus of Formula I 25 mg/kg, 2 hpd, read-out: Tissue concentration, liver
[4] = liver, single intravenous bolus of Formula I 25 mg/kg, 12 hpd, read-out: Tissue concentration, liver
[5] = liver, single oral dose of Formula I 125 mg/kg, 3 hpd, read-out: Tissue concentration in Göttingen pig liver (Table 7)
[6] = liver, single oral dose of Formula I 125 mg/kg, 3 hpd, read-out: Tissue concentration, liver
[7] = liver, single oral dose of Formula I 125 mg/kg, 12 hpd, read-out: Tissue concentration in Göttingen pig liver (Table 7)
[8] = liver, single oral dose of Formula I 125 mg/kg, 12 hpd, read-out: Tissue concentration, liver
[9] = lung, single intravenous bolus of Formula I 25 mg/kg, 2 hpd, read-out: Tissue concentration, lung
[10] = lung, single intravenous bolus of Formula I 25 mg/kg, 12 hpd, read-out: Tissue concentration, lung
[11] = lung, single oral dose of Formula I 125 mg/kg, 3 hpd, read-out: Tissue concentration, lung
[12] = spleen, single intravenous bolus of Formula I 25 mg/kg, 2 hpd, read-out: Tissue concentration, spleen
[13] = spleen, single intravenous bolus of Formula I 25 mg/kg, 12 hpd, read-out: Tissue concentration, spleen
[14] = liver, single oral dose of Formula I 125 mg/kg, 24 hpd
[15] = 2-3 hours after IV 25 mg/kg or PO 125 mg/kg dosing

Structure (SMILES): CC1(O)[C@@H](O)[C@@H](COP(=O)(O)OP(=O)(O)OP(=O)(O)O)O[C@H]1n1ccc(=O)[nH]c1=S (stereo partly drawn) [Formula V]
- concentration at 12 h (125 mg/kg, liver, 12 hpd after oral dosing with Formula I, assumed tissue density of 1 g/mL, read-out: Concentration present in the liver): ~1 µM
- concentration at 12 h (lung, 25 mg/kg, lungs, 12 hrs post-dose after IV dosing with Formula I, read-out: Concentration maintained in lungs): ~1 µM
- concentration at 2 h [1]: 4410 ± 2040 ng/g
- concentration at 3 h [2]: 613 ± 280 ng/g
- concentration at 2 h [3]: 2610 ± 892 ng/g
- concentration at 12 h [4]: 62.8 ± 126 ng/g
- concentration at 3 h [5]: 12.9 ± 12.3 µM
- concentration at 3 h [6]: 6670 ± 6310 ng/g
- concentration at 12 h [7]: 0.88 ± 1.05 µM
- concentration at 12 h [8]: 452 ± 541 ng/g
- concentration at 2 h [9]: 3620 ± 2770 ng/g
- concentration at 12 h [10]: 455 ± 263 ng/g
- concentration at 3 h [11]: 170 ± 29.5 ng/g
- concentration at 2 h [12]: 318 ± 181 ng/g
- concentration at 12 h [13]: 47.5 ± 95 ng/g
- Tissue concentration, brain (brain, single intravenous bolus of Formula I 25 mg/kg, 2 hpd): BQL
- Tissue concentration, brain (brain, single intravenous bolus of Formula I 25 mg/kg, 12 hpd): BQL
- Tissue concentration, brain (brain, single oral dose of Formula I 125 mg/kg, 3 hpd): not detected and BQL
- Tissue concentration, brain (brain, single oral dose of Formula I 125 mg/kg, 12 hpd): BQL
- Tissue concentration, brain (brain, single oral dose of Formula I 125 mg/kg, 24 hpd): BQL
- Tissue concentration, heart (heart, single intravenous bolus of Formula I 25 mg/kg, 2 hpd): 405 ± 149 ng/g
- Tissue concentration, heart (heart, single intravenous bolus of Formula I 25 mg/kg, 12 hpd): 140 ± 32.0 ng/g
- Tissue concentration, heart (heart, single oral dose of Formula I 125 mg/kg, 3 hpd): 64.3 ± 75.4 ng/g
- Tissue concentration, heart (heart, single oral dose of Formula I 125 mg/kg, 12 hpd): BQL
- Tissue concentration, heart (heart, single oral dose of Formula I 125 mg/kg, 24 hpd): BQL
- Tissue concentration, kidney (kidney, single intravenous bolus of Formula I 25 mg/kg, 2 hpd): 4410 ± 2040 ng/g
- Tissue concentration, kidney (kidney, single intravenous bolus of Formula I 25 mg/kg, 12 hpd): not detectable and BQL
- Tissue concentration, kidney (kidney, single oral dose of Formula I 125 mg/kg, 3 hpd): 613 ± 280 ng/g
- Tissue concentration, kidney (kidney, single oral dose of Formula I 125 mg/kg, 12 hpd): BQL
- Tissue concentration, kidney (kidney, single oral dose of Formula I 125 mg/kg, 24 hpd): BQL
- Tissue concentration, liver (liver, single intravenous bolus of Formula I 25 mg/kg, 2 hpd): 2610 ± 892 ng/g
- Tissue concentration, liver (liver, single intravenous bolus of Formula I 25 mg/kg, 12 hpd): 62.8 ± 126 ng/g
- Tissue concentration, liver (liver, single oral dose of Formula I 125 mg/kg, 3 hpd): 6670 ± 6310 ng/g
- Tissue concentration, liver (liver, single oral dose of Formula I 125 mg/kg, 12 hpd): 452 ± 541 ng/g
- Tissue concentration in Göttingen pig liver (Table 7) [14]: BQL
- Tissue concentration, liver [14]: BQL
- Tissue concentration, lung (lung, single intravenous bolus of Formula I 25 mg/kg, 2 hpd): 3620 ± 2770 ng/g
- Tissue concentration, lung (lung, single intravenous bolus of Formula I 25 mg/kg, 12 hpd): 455 ± 263 ng/g
- Tissue concentration, lung (lung, single oral dose of Formula I 125 mg/kg, 3 hpd): 170 ± 29.5 ng/g
- Tissue concentration, lung (lung, single oral dose of Formula I 125 mg/kg, 12 hpd): BQL
- Tissue concentration, lung (lung, single oral dose of Formula I 125 mg/kg, 24 hpd): BQL
- Tissue concentration, spleen (spleen, single intravenous bolus of Formula I 25 mg/kg, 2 hpd): 318 ± 181 ng/g
- Tissue concentration, spleen (spleen, single intravenous bolus of Formula I 25 mg/kg, 12 hpd): 47.5 ± 95.0 ng/g
- Tissue concentration, spleen (spleen, single oral dose of Formula I 125 mg/kg, 3 hpd): not detected and BQL
- Tissue concentration, spleen (spleen, single oral dose of Formula I 125 mg/kg, 12 hpd): BQL
- Tissue concentration, spleen (spleen, single oral dose of Formula I 125 mg/kg, 24 hpd): BQL

Structure (SMILES): C[C@@]1(O)[C@H](O)[C@@H](CO)O[C@H]1n1ccc(=O)[nH]c1=S [Formula VI]
- Brain level, additional fold lower than heart, lung and spleen [15]: approximately 10 fold
- Kidney and liver levels relative to heart, lung and spleen (fold higher) [15]: approximately 10 fold
- Additional decrease of levels in all organs (24 hpd after oral dose, all organs): 2-3 fold
- Decrease of levels in all organs (12 hours post oral dose, all organs): 4-6 fold
- concentration at 2 h (brain, single intravenous bolus of Formula I 25 mg/kg, 2 hpd, read-out: Tissue concentration, brain): 140 ± 56.7 ng/g
- concentration at 12 h (brain, single intravenous bolus of Formula I 25 mg/kg, 12 hpd, read-out: Tissue concentration, brain): 6.4 ± 12.8 ng/g
- concentration at 3 h (brain, single oral dose of Formula I 125 mg/kg, 3 hpd, read-out: Tissue concentration, brain): 192 ± 77.9 ng/g
- concentration at 12 h (brain, single oral dose of Formula I 125 mg/kg, 12 hpd, read-out: Tissue concentration, brain): 111 ± 38.6 ng/g
- concentration at 24 h (brain, single oral dose of Formula I 125 mg/kg, 24 hpd, read-out: Tissue concentration, brain): 37.9 ± 9.15 ng/g
- concentration at 2 h (heart, single intravenous bolus of Formula I 25 mg/kg, 2 hpd, read-out: Tissue concentration, heart): 1990 ± 195 ng/g
- concentration at 12 h (heart, single intravenous bolus of Formula I 25 mg/kg, 12 hpd, read-out: Tissue concentration, heart): 57.3 ± 23.3 ng/g
- concentration at 3 h (heart, single oral dose of Formula I 125 mg/kg, 3 hpd, read-out: Tissue concentration, heart): 3370 ± 645 ng/g
- concentration at 12 h (heart, single oral dose of Formula I 125 mg/kg, 12 hpd, read-out: Tissue concentration, heart): 533 ± 213 ng/g
- concentration at 24 h (heart, single oral dose of Formula I 125 mg/kg, 24 hpd, read-out: Tissue concentration, heart): 240 ± 27.7 ng/g
- concentration at 2 h [1]: 25400 ± 5560 ng/g
- concentration at 12 h (kidney, single intravenous bolus of Formula I 25 mg/kg, 12 hpd, read-out: Tissue concentration, kidney): 701 ± 48.7 ng/g
- concentration at 3 h [2]: 29400 ± 2170 ng/g
- concentration at 12 h (kidney, single oral dose of Formula I 125 mg/kg, 12 hpd, read-out: Tissue concentration, kidney): 7420 ± 1440 ng/g
- concentration at 24 h (kidney, single oral dose of Formula I 125 mg/kg, 24 hpd, read-out: Tissue concentration, kidney): 2740 ± 503 ng/g
- concentration at 2 h [3]: 7960 ± 1530 ng/g
- concentration at 12 h [4]: 201 ± 126 ng/g
- concentration at 3 h [5]: 66.3 ± 23.7 µM
- concentration at 3 h [6]: 18200 ± 6500 ng/g
- concentration at 12 h [7]: 9.46 ± 5.56 µM
- concentration at 12 h [8]: 2600 ± 1530 ng/g
- concentration at 24 h (liver, single oral dose of Formula I 125 mg/kg, 24 hpd, read-out: Tissue concentration in Göttingen pig liver (Table 7)): 4.08 ± 1.84 µM
- concentration at 24 h (liver, single oral dose of Formula I 125 mg/kg, 24 hpd, read-out: Tissue concentration, liver): 1120 ± 505 ng/g
- concentration at 2 h [9]: 2330 ± 130 ng/g
- concentration at 12 h [10]: 93.9 ± 18.8 ng/g
- concentration at 3 h [11]: 3580 ± 1060 ng/g
- concentration at 12 h (lung, single oral dose of Formula I 125 mg/kg, 12 hpd, read-out: Tissue concentration, lung): 536 ± 101 ng/g
- concentration at 24 h (lung, single oral dose of Formula I 125 mg/kg, 24 hpd, read-out: Tissue concentration, lung): 242 ± 85.7 ng/g
- concentration at 2 h [12]: 1620 ± 181 ng/g
- concentration at 12 h [13]: 49.2 ± 9.7 ng/g
- concentration at 3 h (spleen, single oral dose of Formula I 125 mg/kg, 3 hpd, read-out: Tissue concentration, spleen): 3010 ± 433 ng/g
- concentration at 12 h (spleen, single oral dose of Formula I 125 mg/kg, 12 hpd, read-out: Tissue concentration, spleen): 539 ± 195 ng/g
- concentration at 24 h (spleen, single oral dose of Formula I 125 mg/kg, 24 hpd, read-out: Tissue concentration, spleen): 292 ± 139 ng/g
- 12 hpd levels after IV dosing, fold lower than corresponding levels after PO dosing (each organ, 12 hpd, IV 25 mg/kg vs PO 125 mg/kg): approximately 10 fold
